In ChEMBL document CHEMBL3507680, “University of Dundee, Gates Library screen for HepG2 cell viability” one finds cytotoxicity data, which are given here for 105 compounds.

This data set in a line: Human HepG2 cell viability assay in 384 well format. Type of data set: toxicity, cell-based. More on the design: dose 125 nL, time 70.5 hour; concentration not given beside the values. As to conditions: HepG2 cells, read-out: Inhibition.

For the compound `CN1CCN(C(CNC(=O)c2ccc(Cl)cc2F)c2cccs2)CC1` (stereo not given), the cytotoxicity at 70.5 h turned out to be 42.7%.

`CC(Cn1cccn1)NC(=O)Nc1ccc(N2CCCC2)nc1` (stereo not given): the cytotoxicity at 70.5 h turned out to be 10.1%.

Regarding `CN(CC(N)=O)Cc1ccc(F)cc1Cl`, the cytotoxicity at 70.5 h was -5.08%.

In the case of `CCc1nnc2n1CCN(Cc1csc(-c3ccccc3F)n1)C2`, the cytotoxicity at 70.5 h is -7.77%.

As to `Cc1cc(N(C)C)nc(N2CCN(Cc3nccn3C)CC2)n1`, the cytotoxicity at 70.5 h is -5.76%.

On to `CCOc1cc(C)nc(N2CCN(Cc3nccn3CC)CC2)n1`, for which the cytotoxicity at 70.5 h stood at 7.28%.

In the case of `CC(C)c1nnc2n1CCN(Cc1csc(-c3cnn(C)c3)n1)C2`, the cytotoxicity at 70.5 h was -2.14%.

On to `Cc1csc(NC(=O)CN2CCc3nn(C)c(=O)cc3C2)n1`, for which the cytotoxicity at 70.5 h is -8.05%.

Take `Cn1ccnc1-c1cccc(NC(=O)NCC(=O)NC(C)(C)C)c1`: the cytotoxicity at 70.5 h was 4.86%.

Turning to `Cn1nc2c(cc1=O)CN(CC(=O)Nc1nncs1)CC2`, the cytotoxicity at 70.5 h is -1.1%.

As for `CC(C)NC(=O)CCNC(=O)Nc1cccc(-c2nccn2C)c1`, the cytotoxicity at 70.5 h is -2.81%.

For the compound `CCn1nc2c(cc1=O)CN(CC(=O)Nc1cc(C)no1)CC2`, the cytotoxicity at 70.5 h is -0.888%.

Turning to `CC(C)c1cc(NC(=O)CN2CCc3nn(C)c(=O)cc3C2)on1`, the cytotoxicity at 70.5 h is -4.73%.

For the compound `Cn1cc(-c2csc(N3CCSCC3)n2)cn1`, the cytotoxicity at 70.5 h was -3.33%.

Turning to `Fc1cccc(-n2cccn2)c1NCc1nnc(C2CC2)o1`, the cytotoxicity at 70.5 h is -2.54%.

Consider `CC(=O)NCCc1ccc(S(=O)(=O)N(C)C(C)C(C)(C)C)s1` (stereo not given), for which the cytotoxicity at 70.5 h is -9.01%.

Turning to `CCc1nnc2n1CCN(Cc1csc(-c3ccccc3)n1)C2`, the cytotoxicity at 70.5 h is -12.9%.

Take `CC(C)C(O)C1(CNC(=O)Nc2ccc(CN3CCOC3=O)cc2)CC1` (stereo not given): the cytotoxicity at 70.5 h is -11.3%.

For `CCn1ccnc1CN1CCN(c2nc(C)cc(OC)n2)CC1`, the cytotoxicity at 70.5 h was -9.98%.

Turning to `COc1cccnc1NC(=O)COc1ccc(F)cc1F`, the cytotoxicity at 70.5 h was -6.39%.

Take `NC(=O)C1CCN(Cc2cc3c(cc2Br)OCCO3)C1` (stereo not given): the cytotoxicity at 70.5 h is -1.46%.

Take `Cc1nc(C(C)(C)NC(=O)Nc2ccc(C#N)cc2)no1`: the cytotoxicity at 70.5 h was -4.52%.

For the compound `COCCN(Cc1ccc(F)cc1Cl)C(=O)c1cnn(C)c1C`, the cytotoxicity at 70.5 h came out at 7.76%.

Consider `COCCN(Cc1ccc(F)cc1Cl)C(=O)c1c(C)noc1C`, for which the cytotoxicity at 70.5 h was 2.4%.

On to `CCOC(=O)NCCNC(=O)c1cc(Br)cn1C(C)C`, for which the cytotoxicity at 70.5 h was determined as 9.21%.

Turning to `Cc1ccc(C(=O)N2CCOC(c3nc(C(C)(C)C)n[nH]3)C2)c(=O)[nH]1` (stereo not given), the cytotoxicity at 70.5 h is 0.0481%.

Take `Cc1cc(C(=O)Nc2ccnc(OC3CCOC3)c2)c(C)o1` (stereo not given): the cytotoxicity at 70.5 h is -1.8%.

Take `O=C(Nc1ccnc(OC2CCOC2)c1)c1ccccc1Cl` (stereo not given): the cytotoxicity at 70.5 h was -4.06%.

Turning to `CCOCCN1CCN(Cc2nnc(C3CC3)o2)CC1`, the cytotoxicity at 70.5 h is -2.06%.

As to `CCOCCN1CCN(Cc2nc(C)no2)CC1CC` (stereo not given), the cytotoxicity at 70.5 h is -2.4%.

Take `OCCOc1cc(F)ccc1NCc1nc(-c2cccs2)no1`: the cytotoxicity at 70.5 h was -10.9%.

For the compound `Cc1ccccc1-c1noc(CNc2ccc(F)cc2OCCO)n1`, the cytotoxicity at 70.5 h worked out at 1.21%.

In the case of `Cc1ccc2cc(C(=O)N3CCN(C(=O)c4ccoc4)CC3)[nH]c2c1`, the cytotoxicity at 70.5 h came out at 8.19%.

Take `Cc1occc1CN(C)C(=O)Nc1ccc(=O)n(C)c1`: the cytotoxicity at 70.5 h was -7.93%.

For `CC(NCc1ccccc1O)c1ccc(-n2ccnc2)cc1` (stereo not given), the cytotoxicity at 70.5 h is 26.4%.

On to `Cc1nnc2n1CC(CNc1cnc3ccccc3n1)CC2` (stereo not given), for which the cytotoxicity at 70.5 h was -9.52%.

On to `CC(C)c1nnc2n1CC(CNc1cnc3ccccc3n1)CC2` (stereo not given), for which the cytotoxicity at 70.5 h is -9.13%.

For `OCCOc1cc(F)ccc1NCc1nc(-c2ccoc2)no1`, the cytotoxicity at 70.5 h was 8.3%.

As for `CCc1nnc2n1CC(CNc1cnc3ccccc3n1)CC2` (stereo not given), the cytotoxicity at 70.5 h turned out to be 1.47%.

For `Cc1n[nH]cc1CNC1CCN(c2cccc(C(F)(F)F)c2)CC1`, the cytotoxicity at 70.5 h was 2.2%.

On to `Cn1[nH]c(C2CC2)c(-c2ccc3c(c2)OCO3)c1=N`, for which the cytotoxicity at 70.5 h came to 8.3%.

Regarding `Cc1cnn(CC(=O)NCC2(O)CCCc3ccccc32)c1` (stereo not given), the cytotoxicity at 70.5 h came to 2.95%.

Regarding `CCc1nc(Cn2c(=O)n(C)c3ccccc32)no1`, the cytotoxicity at 70.5 h is -6.86%.

With `OCc1cc2ccccc2nc1NCC1(O)CCC1`, the cytotoxicity at 70.5 h was -8.77%.

As for `CCNC(=O)N1CCC(NC(=O)NCCc2ccc(C)cc2C)C1` (stereo not given), the cytotoxicity at 70.5 h was -3.65%.

`OCc1cc2ccccc2nc1NCC1CCN(CC(F)(F)F)C1` (stereo not given): the cytotoxicity at 70.5 h was 27.3%.

Consider `CCNC(=O)N1CCC(NC(=O)NCCc2cc(F)cc(F)c2)C1` (stereo not given), for which the cytotoxicity at 70.5 h turned out to be 1.55%.

For the compound `CN(Cc1ccncc1)C(=O)NCc1cn(-c2ccccc2)nn1`, the cytotoxicity at 70.5 h was -8.45%.

`CCOCCN1CCN(Cc2nnc(-c3occc3C)o2)CC1`: the cytotoxicity at 70.5 h came to 9.82%.

For `CCOCCN1CCN(Cc2nnc(-c3ccco3)o2)CC1`, the cytotoxicity at 70.5 h is -5.68%.

For `Cc1cc(CSC2CCCN(c3cnn(C)c3)C2=O)no1` (stereo not given), the cytotoxicity at 70.5 h is -3.62%.

With `CC(C)(C)CC(=O)NCC(=O)Nc1ccn(Cc2ccccc2)n1`, the cytotoxicity at 70.5 h is -11%.

Consider `NC(=O)NC(=O)CNC1(c2ccc(Cl)cc2)CCCC1`, for which the cytotoxicity at 70.5 h is -17.2%.

As to `Cn1nc(Br)c2c(NCCS(N)(=O)=O)ncnc21`, the cytotoxicity at 70.5 h was determined as 28.8%.

For the compound `Cn1nc(Br)c2c(NCCCS(N)(=O)=O)ncnc21`, the cytotoxicity at 70.5 h was -22.7%.

Take `COCCCNC(=O)CN1CCSC(c2ccccc2)C1` (stereo not given): the cytotoxicity at 70.5 h was 3.9%.

Regarding `CC(C)(C)CC(=O)NCC(=O)Nc1ccn(CCCn2ccnc2)n1`, the cytotoxicity at 70.5 h is -2.26%.

Consider `O=C(c1ccc(N2CCCC2)nc1)N1CCCC(c2nccs2)C1` (stereo not given), for which the cytotoxicity at 70.5 h was -20.6%.

Take `COc1ccc(C(C)NC(=O)N2CCNC(=O)CC2)cc1F` (stereo not given): the cytotoxicity at 70.5 h was -1.24%.

For the compound `CN1CC(C(=O)NC2(c3cccc(F)c3)CCOCC2)CC1=O` (stereo not given), the cytotoxicity at 70.5 h was -7.9%.

With `Cn1cc(N2CCCC(SCc3nc(C4CC4)no3)C2=O)cn1` (stereo not given), the cytotoxicity at 70.5 h worked out at 29.8%.

`CC(C)(C)NC(=O)CNC(=O)Nc1cc(-c2ccccc2)ns1`: the cytotoxicity at 70.5 h was -14.8%.

As for `CCC1CN(c2ncnc3nc[nH]c23)CCO1` (stereo not given), the cytotoxicity at 70.5 h was 11.7%.

For `CC(C)C(=O)NCCCNC(=O)Nc1cc(-c2ccccc2)ns1`, the cytotoxicity at 70.5 h is -12.9%.

`CC(C(=O)NCC1CCN(c2ccncc2)CC1)S(C)(=O)=O` (stereo not given): the cytotoxicity at 70.5 h is -7.42%.

With `FC(F)CN1CCC(NCc2ccc(-n3cccn3)nc2)CC1`, the cytotoxicity at 70.5 h is -9.95%.

For the compound `O=C(Nc1ccc(-n2cccn2)cc1)N1CCC(O)C1` (stereo not given), the cytotoxicity at 70.5 h was found to be 28.4%.

In the case of `CC(C)Cc1nc(CSC2CCCN(c3cnn(C)c3)C2=O)no1` (stereo not given), the cytotoxicity at 70.5 h was -1.14%.

Turning to `c1ccc(-n2nnnc2CNCc2ccc3c(c2)OCCO3)cc1`, the cytotoxicity at 70.5 h was -8.49%.

For `CCc1nc(CSC2CCCN(c3cnn(C)c3)C2=O)cs1` (stereo not given), the cytotoxicity at 70.5 h was determined as 7.29%.

`Cc1ccccc1OCCN1CCCC1CS(N)(=O)=O` (stereo not given): the cytotoxicity at 70.5 h is 0.0321%.

For `CCn1nc2c(cc1=O)CN(CCOc1ccccc1C#N)CC2`, the cytotoxicity at 70.5 h was -8.44%.

Take `O=C(CN1CCSC(c2ccccc2)C1)NCc1ccccn1` (stereo not given): the cytotoxicity at 70.5 h was -5.23%.

`Cn1cc(N2CCCC(SCc3ccco3)C2=O)cn1` (stereo not given): the cytotoxicity at 70.5 h came to 14.8%.

On to `CCC(C(=O)NCC1CCN(c2ccncc2)CC1)N(C)C` (stereo not given), for which the cytotoxicity at 70.5 h was -7.96%.

Take `Cc1cccc(CNCC2COC3(CCCCC3)O2)c1C` (stereo not given): the cytotoxicity at 70.5 h was determined as 34.7%.

`CS(=O)(=O)CCNCc1ccc(OCc2cscn2)cc1`: the cytotoxicity at 70.5 h was -3.66%.

Turning to `Cc1ncsc1CNC(=O)N1CCN(Cc2ccccc2)C[C@H]1C`, the cytotoxicity at 70.5 h was -3.58%.

Consider `Cc1cc(CNC(=O)N2CCN(Cc3ccccc3)C[C@H]2C)on1`, for which the cytotoxicity at 70.5 h is 30.7%.

Consider `CCNC(=O)CCC(=O)Nc1ccc2nn(C(C)C)cc2c1`, for which the cytotoxicity at 70.5 h stood at 18.4%.

With `Cc1ncsc1CNC(=O)N1CCN(Cc2ccccc2)CC1C` (stereo not given), the cytotoxicity at 70.5 h is -9.74%.

On to `Cc1ccc(-n2ccnc2)c(C(=O)NCCOCC(F)(F)F)c1`, for which the cytotoxicity at 70.5 h is -8.14%.

With `CCC(C)(C)C(=O)N1CCN(C2=NCC(C)S2)CC1` (stereo not given), the cytotoxicity at 70.5 h is -8.95%.

Turning to `CC(C)n1cc2cc(NC(=O)Cn3cnnn3)ccc2n1`, the cytotoxicity at 70.5 h is -7.92%.

With `Cc1ccc(CNC(=O)NC(C)CCS(C)(=O)=O)cc1F` (stereo not given), the cytotoxicity at 70.5 h is -7.34%.

Consider `O=C(c1ccncc1)N1CCN(c2ccc(F)cc2Cl)CC1`, for which the cytotoxicity at 70.5 h was determined as 18.4%.

`CC(CCS(C)(=O)=O)NC(=O)NCc1ccc2ccccc2c1` (stereo not given): the cytotoxicity at 70.5 h was 5.09%.

Consider `CCN1C(=O)C2(CCCCC2)NC12CCSCC2`, for which the cytotoxicity at 70.5 h was -7.61%.

`O=C1CN(C(=O)C2CCOC2)CCN1Cc1ccc(Cl)cc1` (stereo not given): the cytotoxicity at 70.5 h is 23.8%.

Consider `O=C1CN(C(=O)C2CCCOC2)CCN1Cc1ccc(Cl)cc1` (stereo not given), for which the cytotoxicity at 70.5 h is -5.9%.

Regarding `COc1ccc(CSCC(O)CO)c(Cl)c1` (stereo not given), the cytotoxicity at 70.5 h was 18.2%.

For the compound `OCC(O)CSCc1ccc(Cl)cc1Cl` (stereo not given), the cytotoxicity at 70.5 h stood at 0.304%.

Consider `Cn1ccc2c(C(=O)N3CCC4(CCOC4)C3)cccc21` (stereo not given), for which the cytotoxicity at 70.5 h turned out to be 23.5%.

As for `Cc1ncsc1C(=O)N1CCN(Cc2ccccc2)CC1C` (stereo not given), the cytotoxicity at 70.5 h is 2.52%.

Turning to `Cc1ncccc1CNCC1COC2(CCCCC2)O1` (stereo not given), the cytotoxicity at 70.5 h amounted to 27.5%.

Regarding `CC(C)OCCC(=O)Nc1cc(C(=O)N(C)C(C)C)ccc1Cl`, the cytotoxicity at 70.5 h turned out to be 4.24%.

Take `CC(NC(=O)NCc1ccccn1)c1cccs1` (stereo not given): the cytotoxicity at 70.5 h is -13.9%.

As for `O=C(NCc1cccnc1N1CCCCC1)c1ccc2c(c1)OCO2`, the cytotoxicity at 70.5 h is -18.5%.

As for `Cn1cccc1C1CCCN1Cc1noc(C(C)(C)C)n1` (stereo not given), the cytotoxicity at 70.5 h was -21.2%.

As to `O=C(CCOc1ccccc1F)N1CCOCC1`, the cytotoxicity at 70.5 h was 44.2%.

As to `CCCN(CCc1ccccn1)C(=O)Cn1cnnn1`, the cytotoxicity at 70.5 h was -23.7%.

On to `CNc1cc2c(nn1)CCN(C(=O)c1ccccc1-n1cccn1)C2`, for which the cytotoxicity at 70.5 h turned out to be 47.8%.

Regarding `CC(O)C1CCN(C(=O)CCOc2ccccc2F)CC1` (stereo not given), the cytotoxicity at 70.5 h is -14.1%.

`O=C(Cn1cc(Cl)cn1)N1CCNC1=O`: the cytotoxicity at 70.5 h came to 48.7%.

Take `Cn1nc(C2CCCC2)c(-c2ccc3c(c2)OCO3)c1N`: the cytotoxicity at 70.5 h is -8.03%.
